Measurements published in ChEMBL document CHEMBL1201862, “PubChem BioAssay data set” (2004).
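The compound was tested at five concentrations on cells cultured in 96-well plates, with a 48-hour exposure period. At the GI50, growth is halved.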 Active and inactive are the calls of the source. Rule as the data show it: active = GI50 up to about 1.1 µM and inactive = higher.

How the values were obtained:
Assay in all cases: NCI anticancer screen, dose series, 48 h
IGROV-1 = test system: IGROV-1
SF-539 = test system: SF-539
OVCAR-3 = test system: OVCAR-3
DU-145 = test system: DU-145
CCRF-CEM = test system: CCRF-CEM
HCT-116 = test system: HCT-116
OVCAR-5 = test system: OVCAR-5
NCI/ADR-RES = test system: NCI/ADR-RES
KM12 = test system: KM12
COLO 205 = test system: COLO 205
SNB-75 = test system: SNB-75
SNB-19 = test system: SNB-19
LOX IMVI = test system: LOX IMVI
CAKI-1 = test system: CAKI-1
NCI-H522 = test system: NCI-H522
SK-MEL-28 = test system: SK-MEL-28
MDA-N = test system: MDA-N
NCI-H226 = test system: NCI-H226
MOLT-4 = test system: MOLT-4

Structure (SMILES)	GI50 (IGROV-1)	GI50 (SF-539)	GI50 (OVCAR-3)	GI50 (DU-145)	GI50 (CCRF-CEM)	GI50 (HCT-116)	GI50 (OVCAR-5)	GI50 (NCI/ADR-RES)	GI50 (KM12)	GI50 (COLO 205)	GI50 (SNB-75)	GI50 (SNB-19)	GI50 (LOX IMVI)	GI50 (CAKI-1)	GI50 (NCI-H522)	GI50 (SK-MEL-28)	GI50 (MDA-N)	GI50 (NCI-H226)	GI50 (MOLT-4)
Nc1cc(S(=O)(=O)O)cc2ccc(S(=O)(=O)O)cc12	> 100 µM (inactive)	> 100 µM (inactive)	> 100 µM (inactive)	> 100 µM (inactive)	> 100 µM (inactive)	> 100 µM (inactive)	> 100 µM (inactive)	> 100 µM (inactive)	> 100 µM (inactive)	> 100 µM (inactive)	> 100 µM (inactive)	> 100 µM (inactive)	> 100 µM (inactive)	> 100 µM (inactive)	> 100 µM (inactive)	> 100 µM (inactive)	> 100 µM (inactive)		
N=C(CC/C(N)=N/O)NO	> 100 µM (inactive)		> 100 µM (inactive)	> 100 µM (inactive)		> 100 µM (inactive)	> 100 µM (inactive)	> 100 µM (inactive)	> 100 µM (inactive)		> 100 µM (inactive)	> 100 µM (inactive)	> 100 µM (inactive)	> 100 µM (inactive)	> 100 µM (inactive)	> 100 µM (inactive)	> 100 µM (inactive)	> 100 µM (inactive)	> 100 µM (inactive)
C=C1CCc2ccccc2C1=O	> 100 µM (inactive)	> 100 µM (inactive)	> 100 µM (inactive)	> 100 µM (inactive)	45.8 µM (inactive)	> 100 µM (inactive)	> 100 µM (inactive)	> 100 µM (inactive)	> 100 µM (inactive)	> 100 µM (inactive)	> 100 µM (inactive)	> 100 µM (inactive)		> 100 µM (inactive)	> 100 µM (inactive)		43.1 µM (inactive)	> 100 µM (inactive)	64.7 µM (inactive)
NC(=O)c1sc2nc3ccccc3n2c1N	51.5 µM (inactive)	21.5 µM (inactive)	> 100 µM (inactive)	84.9 µM (inactive)	> 100 µM (inactive)	74.1 µM (inactive)	> 100 µM (inactive)	> 100 µM (inactive)		> 100 µM (inactive)	29.4 µM (inactive)	51.8 µM (inactive)	36.1 µM (inactive)	92.7 µM (inactive)		> 100 µM (inactive)	> 100 µM (inactive)	> 100 µM (inactive)	> 100 µM (inactive)
C[C@]12CC[C@@H]3c4ccc(OC(=O)c5ccccc5)cc4CC[C@H]3[C@@H]1CC[C@@H]2Oc1c2ccccc2nc2ccccc12	12.5 µM (inactive)		7.66 µM (inactive)	9.23 µM (inactive)	0.0161 µM (active)	7.8 µM (inactive)	16.6 µM (inactive)	11.4 µM (inactive)	14 µM (inactive)	15.1 µM (inactive)	10 µM (inactive)	7.45 µM (inactive)	7.85 µM (inactive)	9.73 µM (inactive)	8.15 µM (inactive)	12 µM (inactive)	3.53 µM (inactive)	14.9 µM (inactive)	8.87 µM (inactive)
CCOC(=O)c1cc(C(O)P2(=O)N(CC(C)(C)C)[C@@H]3CCCC[C@H]3N2CC(C)(C)C)cn1C(=O)OC(C)(C)C (stereo partly drawn)	4.8 µM (inactive)		12.3 µM (inactive)	16.6 µM (inactive)		11.2 µM (inactive)	17.3 µM (inactive)	16.8 µM (inactive)	14.8 µM (inactive)	17.3 µM (inactive)		19.5 µM (inactive)	17.6 µM (inactive)	14.8 µM (inactive)	13.8 µM (inactive)	16.6 µM (inactive)	14.8 µM (inactive)	20.6 µM (inactive)	12.8 µM (inactive)
O=C(O)CC[P+](c1ccccc1)(c1ccccc1)c1ccccc1	15 µM (inactive)		13.5 µM (inactive)	48.2 µM (inactive)	50.7 µM (inactive)	21.3 µM (inactive)	38.1 µM (inactive)	> 100 µM (inactive)	29 µM (inactive)	14.3 µM (inactive)	28.4 µM (inactive)	24.2 µM (inactive)	30.7 µM (inactive)	> 100 µM (inactive)	24.5 µM (inactive)	> 100 µM (inactive)	20.4 µM (inactive)	53.5 µM (inactive)	49.1 µM (inactive)
Cc1cn(CCCCCCOC(=O)NC(CCCNC(=N)N)C(=O)O)c(=O)[nH]c1=O (stereo not drawn)	> 100 µM (inactive)	> 100 µM (inactive)	> 100 µM (inactive)	> 100 µM (inactive)	> 100 µM (inactive)	> 100 µM (inactive)	> 100 µM (inactive)	> 100 µM (inactive)	> 100 µM (inactive)	> 100 µM (inactive)	> 100 µM (inactive)	> 100 µM (inactive)	> 100 µM (inactive)	> 100 µM (inactive)		> 100 µM (inactive)	> 100 µM (inactive)	> 100 µM (inactive)	> 100 µM (inactive)
CCO[C@@H]1CCC([S+]([O-])c2ccc(C)cc2)=CO1 (stereo partly drawn)	> 100 µM (inactive)		> 100 µM (inactive)	> 100 µM (inactive)		> 100 µM (inactive)	> 100 µM (inactive)	> 100 µM (inactive)	34.2 µM (inactive)	> 100 µM (inactive)	> 100 µM (inactive)	> 100 µM (inactive)	> 100 µM (inactive)	> 100 µM (inactive)	> 100 µM (inactive)	> 100 µM (inactive)	> 100 µM (inactive)	> 100 µM (inactive)	52.1 µM (inactive)
CC(=O)Oc1c(C)cc(-c2cc(C)c(OC(C)=O)c(C)c2)cc1C	40.9 µM (inactive)		90.2 µM (inactive)	41.7 µM (inactive)	31 µM (inactive)	41.1 µM (inactive)	43.7 µM (inactive)	21.1 µM (inactive)	17.9 µM (inactive)	50.4 µM (inactive)	16.2 µM (inactive)	70.1 µM (inactive)	17.2 µM (inactive)	57.9 µM (inactive)	24 µM (inactive)	27.6 µM (inactive)	4.98 µM (inactive)	29.7 µM (inactive)	> 100 µM (inactive)
Nc1c(Cl)ncnc1N[C@@H]1C[C@H]1CO	> 100 µM (inactive)	> 100 µM (inactive)	> 100 µM (inactive)	> 100 µM (inactive)	> 100 µM (inactive)	> 100 µM (inactive)	> 100 µM (inactive)	> 100 µM (inactive)	> 100 µM (inactive)	> 100 µM (inactive)	0.494 µM (active)	> 100 µM (inactive)	> 100 µM (inactive)	> 100 µM (inactive)	> 100 µM (inactive)	> 100 µM (inactive)	> 100 µM (inactive)		> 100 µM (inactive)
O=C(O)C12C3C4(C(=O)O)C1C1(C(=O)O)C2C3(C(=O)O)C41 (stereo not drawn)	> 100 µM (inactive)	> 100 µM (inactive)	> 100 µM (inactive)	> 100 µM (inactive)	> 100 µM (inactive)	> 100 µM (inactive)	> 100 µM (inactive)	> 100 µM (inactive)	> 100 µM (inactive)	> 100 µM (inactive)	> 100 µM (inactive)	> 100 µM (inactive)	> 100 µM (inactive)	> 100 µM (inactive)	> 100 µM (inactive)	> 100 µM (inactive)	> 100 µM (inactive)		> 100 µM (inactive)
CCOc1cc(/C=N\N(C)C)cc(/C=N\N(C)C)c1O		20.6 µM (inactive)	31.7 µM (inactive)	> 100 µM (inactive)	44.7 µM (inactive)	90.6 µM (inactive)	48.2 µM (inactive)	35.8 µM (inactive)	> 100 µM (inactive)	18.7 µM (inactive)	28.8 µM (inactive)	48.9 µM (inactive)	30.5 µM (inactive)	18.3 µM (inactive)		35.4 µM (inactive)	32.8 µM (inactive)	38.3 µM (inactive)	61 µM (inactive)
Cc1ccc(Nc2n[nH]c(=S)s2)cc1C	> 100 µM (inactive)	> 100 µM (inactive)	> 100 µM (inactive)	> 100 µM (inactive)	72.9 µM (inactive)	> 100 µM (inactive)	> 100 µM (inactive)	> 100 µM (inactive)	78.5 µM (inactive)	66.1 µM (inactive)	> 100 µM (inactive)	> 100 µM (inactive)	> 100 µM (inactive)	> 100 µM (inactive)	60.3 µM (inactive)	57.9 µM (inactive)	40.6 µM (inactive)		59.3 µM (inactive)
Cc1cc(S(=O)(=O)Nc2nc3ccccc3nc2-c2ccc(Cl)cc2)c(S)cc1Cl	12.4 µM (inactive)	19.9 µM (inactive)	16.3 µM (inactive)	16.3 µM (inactive)	21.7 µM (inactive)	19.4 µM (inactive)	19.6 µM (inactive)	19.4 µM (inactive)	17.2 µM (inactive)	16.4 µM (inactive)		19 µM (inactive)		18.7 µM (inactive)	13.6 µM (inactive)	16.8 µM (inactive)	18 µM (inactive)	23.1 µM (inactive)	13.8 µM (inactive)
CCN(CC)CCC(=O)Nc1ccc2sc3ccccc3c(=O)c2n1	16.5 µM (inactive)	18 µM (inactive)	19.2 µM (inactive)	23.4 µM (inactive)	14.5 µM (inactive)	12.5 µM (inactive)	18.9 µM (inactive)	19.8 µM (inactive)	16.3 µM (inactive)	12.9 µM (inactive)	8.55 µM (inactive)	16.7 µM (inactive)	14 µM (inactive)	14 µM (inactive)	14.8 µM (inactive)	16.7 µM (inactive)	14.1 µM (inactive)		7.78 µM (inactive)
